# In patent publication US10694743B2, “Agricultural compositions with reduced aquatic toxicity” (priority 2014, dated 2020):
# “Also recorded” adds a separate entry of the source.
# Assays:
# [1] = test system: common lambsquarters (CHEAL); assay: Agricultural field test of glyphosate with adjuvant, visual weed control; format: in vivo, Chenopodium album; details: for CHEAL control relative to the control: 8 and 14 DAT; for CHEAL control relative to Roundup Powermax / CHEAL 22 DAT, %: 22 DAT; for CHEAL 14 DAT, % / CHEAL 22 DAT, % / CHEAL 8 DAT, %: visual weed control, glyphosate 480 g.a.e./ha; for CHEAL 14 DAT, % / CHEAL 22 DAT, %: 0-100; for CHEAL 8 DAT, %: 0=no effect to 100=complete kill, 160 g adjuvant per 540 g.a.e.
# Procedure: (§1) Amine ethoxylates are evaluated as adjuvants for glyphosate formulations in agricultural field tests performed by an independent laboratory. The weed species included in the evaluation are common lambsquarters (CHEAL), barnyard grass (ECHCG), and wild oat (AVEFA).
# (§2) Two field trials are conducted in the Netherlands during the summer. In the first trial, common lambsquarters (CHEAL, Chenopodium album), barnyard grass (ECHCG, Echinochloa crus-galls) and wild oat (AVEFA, Avena fatua) are sown in three distinct zones of the same size in a 4×2 m field plot. Other emerging weed species are removed by hand as needed. Five weeks after sowing, the plots are treated and weed control is visually assessed 8, 14, and 22 days after treatment (DAT). Visual assessment is used with a scale of 0=no effect to 100=complete kill. Growth reduction is included in this assessment. On the day of treatment, ECHCG has more than six leaves, and CHEAL has at least six unfolded leaves. A second test with AVEFA alone is conducted because the level of emergence was too low in the first test. (Results from the first AVEFA testing are not included.) AVEFA is at the 3-leaf stage on the day of treatment. The plots are visually evaluated 9 and 23 days after treatment.
# (§3) A glyphosate potassium solution (540 g.a.e./L) without surfactants or other adjuvant chemicals is used to prepare solutions that contain the adjuvants listed in Table 2A. Roundup® Powermax® (540 g.a.e./L, product of Monsanto) is used as a control. The glyphosate solutions are diluted with deionized water such that application at a water volume of 80 L/ha results in a glyphosate application rate of 480 g.a.e./ha. Adjuvants are included in the diluted glyphosate solution at a ratio of 160 g adjuvant per 540 g.a.e. glyphosate. In this way, commercial glyphosate products containing glyphosate at 540 g.a.e./L and adjuvant at 160 g/L are simulated.
# (§4) Glyphosate solutions are applied with a backpack sprayer having a TeeJet® TP8003E nozzle set to deliver 80 L/ha at 150 kPa. The application with the first trial started early in the morning in mid-summer. Conditions: sunny skies, relative humidity 80%, temperature 18° C., little or no wind, wet soil, damp foliage. Application of AVEFA trial starts in early autumn late in the afternoon. Conditions: partly cloudy, relative humidity 79%, temperature 15° C., little or no wind, wet soil, dry foliage.
# [2] = test system: wild oat (AVEFA); assay: Agricultural field test of glyphosate with adjuvant, visual weed control (second trial); format: in vivo, Avena fatua; details: glyphosate 480 g.a.e./ha; for AVEFA 9 DAT, %: 0-100, 9 DAT; for AVEFA 23 DAT, %: 0-100, 23 DAT
# Procedure: as §1, §2, §3, §4
# [3] = test system: barnyard grass (ECHCG); assay: Agricultural field test of glyphosate with adjuvant, visual weed control; format: in vivo, Echinochloa crus-galls; details: for ECHCG control relative to Roundup Powermax / ECHCG 22 DAT, %: 22 DAT; for ECHCG 8 DAT, % / ECHCG 14 DAT, % / ECHCG 22 DAT, %: visual weed control, 0-100, glyphosate 480 g.a.e./ha
# Procedure: as §1, §2, §3, §4
# [4] = test system: common lambsquarters (CHEAL), barnyard grass (ECHCG), and wild oat (AVEFA); assay: Agricultural field testing, overall performance over the weed species; format: in vivo; details: all weed species, glyphosate 480 g.a.e./ha
# Procedure: as §1
# as §2, with “after treatment. […]” for “after treatment.”
# [5] = test system: Daphnia magna; assay: Aquatic toxicity screen, Daphnia sp. Acute Immobilization Test (OECD 202 / OPPTS 850.1010); details: for 48-Hour EC50: 48-hour exposure, static test conditions
# Procedure: The study is performed based on procedures in the OECD Guidelines for Testing of Chemicals, Guideline 202: Daphnia sp., Acute Immobilization Test, and U.S. EPA Guidelines, OPPTS Number 850.1010: Aquatic Invertebrate Acute Toxicity Test. The half maximal effective concentration (EC50) after 48 hours is reported below.
Substance,CHEAL control relative to the control [1],CHEAL control relative to Roundup Powermax [1],"CHEAL 14 DAT, % [1] [%]","CHEAL 22 DAT, % [1] [%]","CHEAL 8 DAT, % [1] [%]","AVEFA 9 DAT, % [2] [%]","AVEFA 23 DAT, % [2] [%]",ECHCG control relative to Roundup Powermax [3],"ECHCG 8 DAT, % [3] [%]","ECHCG 14 DAT, % [3] [%]","ECHCG 22 DAT, % [3] [%]",overall field performance as glyphosate adjuvant [4],overall field performance as glyphosate adjuvant ([4]; listed as C11 unsaturated 2EO ethoxylate),48-Hour EC50 [5] [µg/mL],aquatic toxicity rating ([5]; in vivo)
"C11 saturated fatty amine 2EO ethoxylate [Comparative Agent D, reference compound]",outperform the control,same performance as Roundup Powermax,91.3,92.5,75.0,82.5,100,outperform Roundup Powermax,97.5,91.3,100,–,–,–,–
C11 unsaturated fatty amine 2EO ethoxylate [Agent B],outperform the control,same performance as Roundup Powermax,97.7,96.7,86.7,87.5,100,outperform Roundup Powermax; also recorded: top performer,100,97.7,100,best overall performance of the group,outperforms its saturated analog,–,–
saturated C11 fatty amine 5EO ethoxylate [Saturated C11 amine 5EO ethoxylate],–,–,–,–,–,–,–,–,–,–,–,–,–,3.3,moderately toxic
unsaturated C11 fatty amine 5EO ethoxylate [Unsaturated C11 amine 5 EO ethoxylate],–,–,–,–,–,–,–,–,–,–,–,–,–,20,–
